A short description of this test: Antioxidant activity assessed as peroxide value relative to control. In kind it is functional.
As for `Oc1cc2cc[nH]c2cc1Br`, the Activity (milliequivalent/kg) turned out to be 0.036.

Turning to `Oc1c(Br)cc2[nH]ccc2c1O`, the Activity (milliequivalent/kg) amounted to 0.194. With `Oc1cc(Br)c(O)c2[nH]ccc12`, the Activity (milliequivalent/kg) was 0.106. `Cc1c(C)c2c(c(C)c1O)CC[C@@](C)(CCC[C@H](C)CCC[C@H](C)CCCC(C)C)O2`: the Activity (milliequivalent/kg) stood at 0.062. As to `Cc1cc(C(C)(C)C)c(O)c(C(C)(C)C)c1`, the Activity (milliequivalent/kg) is 0.031.

Values taken from ChEMBL document CHEMBL1150936, “Antioxidative bromoindole derivatives from the mid-intestinal gland of the muricid gastropod Drupella fragum” (J Nat Prod, 1998).
